# Data published in ChEMBL document CHEMBL1201862, “PubChem BioAssay data set” (2004).
#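 How tested: cells in 96-well plates exposed to compound for 48 hours at five concentrations. GI50: concentration for 50% inhibition of growth.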 Calls of active or inactive are those of the source. No stated cut-off is given here; in the data, active = GI50 up to about 1.1 µM and inactive = higher.
# How the values were obtained:
# Experiment in all cases: NCI anticancer screen, dose series, 48 h
# 786-0 = tested on: 786-0
# A498 = tested on: A498
# A549 = tested on: A549
# ACHN = tested on: ACHN
# BT-549 = tested on: BT-549
# CAKI-1 = tested on: CAKI-1
# CCRF-CEM = tested on: CCRF-CEM
# COLO 205 = tested on: COLO 205
# DU-145 = tested on: DU-145
# EKVX = tested on: EKVX
# HCC 2998 = tested on: HCC 2998
# HCT-116 = tested on: HCT-116
# HCT-15 = tested on: HCT-15
# HL-60 = tested on: HL-60
# HOP-62 = tested on: HOP-62
# HOP-92 = tested on: HOP-92
# HT-29 = tested on: HT-29
# Hs-578T = tested on: Hs-578T
# IGROV-1 = tested on: IGROV-1
# K562 = tested on: K562
# KM12 = tested on: KM12
# LOX IMVI = tested on: LOX IMVI
# M14 = tested on: M14
# MCF7 = tested on: MCF7
# MDA-MB-231 = tested on: MDA-MB-231
# MDA-MB-435 = tested on: MDA-MB-435
# MDA-N = tested on: MDA-N
# MOLT-4 = tested on: MOLT-4
# Malme-3M = tested on: Malme-3M
# NCI-H226 = tested on: NCI-H226
# NCI-H23 = tested on: NCI-H23
# NCI-H460 = tested on: NCI-H460
# NCI-H522 = tested on: NCI-H522
# NCI/ADR-RES = tested on: NCI/ADR-RES
# OVCAR-3 = tested on: OVCAR-3
# OVCAR-4 = tested on: OVCAR-4
# OVCAR-5 = tested on: OVCAR-5
# OVCAR-8 = tested on: OVCAR-8
# PC-3 = tested on: PC-3
# RPMI-8226 = tested on: RPMI-8226
# RXF 393 = tested on: RXF 393
# SF-268 = tested on: SF-268
# SF-295 = tested on: SF-295
# SF-539 = tested on: SF-539
# SK-MEL-28 = tested on: SK-MEL-28
# SK-MEL-2 = tested on: SK-MEL-2
# SK-MEL-5 = tested on: SK-MEL-5
# SK-OV-3 = tested on: SK-OV-3
# SN12C = tested on: SN12C
# SNB-19 = tested on: SNB-19
# SNB-75 = tested on: SNB-75
# SR = tested on: SR
# SW-620 = tested on: SW-620
# T47D = tested on: T47D
# TK-10 = tested on: TK-10
# U-251 = tested on: U-251
# UACC-257 = tested on: UACC-257
# UACC-62 = tested on: UACC-62
# UO-31 = tested on: UO-31
structure (smiles),measurement,setting,value
CCOc1cc2oc(C)cc(=O)c2c(OC)c1/C=N/c1ccc(Cn2c(C)nc3ccccc32)cc1,GI50,786-0,> 100 µM (inactive)
same,GI50,A498,> 100 µM (inactive)
same,GI50,A549,> 100 µM (inactive)
same,GI50,ACHN,> 100 µM (inactive)
same,GI50,BT-549,> 100 µM (inactive)
same,GI50,CAKI-1,> 100 µM (inactive)
same,GI50,CCRF-CEM,> 100 µM (inactive)
same,GI50,COLO 205,> 100 µM (inactive)
same,GI50,DU-145,> 100 µM (inactive)
same,GI50,EKVX,> 100 µM (inactive)
same,GI50,HCC 2998,> 100 µM (inactive)
same,GI50,HCT-116,> 100 µM (inactive)
same,GI50,HCT-15,> 100 µM
same,GI50,HL-60,> 100 µM (inactive)
same,GI50,HOP-62,> 100 µM (inactive)
same,GI50,HOP-92,> 100 µM (inactive)
same,GI50,HT-29,> 100 µM (inactive)
same,GI50,Hs-578T,> 100 µM (inactive)
same,GI50,IGROV-1,> 100 µM (inactive)
same,GI50,K562,> 100 µM (inactive)
same,GI50,KM12,> 100 µM (inactive)
same,GI50,LOX IMVI,> 100 µM (inactive)
same,GI50,M14,> 100 µM (inactive)
same,GI50,MCF7,> 100 µM (inactive)
same,GI50,MDA-MB-231,> 100 µM (inactive)
same,GI50,MDA-MB-435,> 100 µM (inactive)
same,GI50,MDA-N,> 100 µM (inactive)
same,GI50,MOLT-4,> 100 µM (inactive)
same,GI50,Malme-3M,> 100 µM (inactive)
same,GI50,NCI-H226,> 100 µM (inactive)
same,GI50,NCI-H23,> 100 µM (inactive)
same,GI50,NCI-H460,> 100 µM (inactive)
same,GI50,NCI-H522,> 100 µM (inactive)
same,GI50,NCI/ADR-RES,> 100 µM (inactive)
same,GI50,OVCAR-3,> 100 µM (inactive)
same,GI50,OVCAR-4,> 100 µM (inactive)
same,GI50,OVCAR-5,> 100 µM (inactive)
same,GI50,OVCAR-8,> 100 µM (inactive)
same,GI50,PC-3,> 100 µM (inactive)
same,GI50,RPMI-8226,> 100 µM (inactive)
same,GI50,RXF 393,> 100 µM (inactive)
same,GI50,SF-268,> 100 µM (inactive)
same,GI50,SF-295,> 100 µM (inactive)
same,GI50,SF-539,> 100 µM (inactive)
same,GI50,SK-MEL-28,> 100 µM (inactive)
same,GI50,SK-MEL-2,> 100 µM (inactive)
same,GI50,SK-MEL-5,> 100 µM (inactive)
same,GI50,SK-OV-3,> 100 µM (inactive)
same,GI50,SN12C,> 100 µM (inactive)
same,GI50,SNB-19,> 100 µM (inactive)
same,GI50,SNB-75,> 100 µM (inactive)
same,GI50,SR,> 100 µM (inactive)
same,GI50,SW-620,> 100 µM (inactive)
same,GI50,T47D,> 100 µM (inactive)
same,GI50,TK-10,> 100 µM (inactive)
same,GI50,U-251,> 100 µM (inactive)
same,GI50,UACC-257,> 100 µM (inactive)
same,GI50,UACC-62,> 100 µM (inactive)
same,GI50,UO-31,> 100 µM (inactive)
C=C1CCC(CC[C@@H]2CC[C@]3(OC2)O[C@@]2(O)CC[C@]3(C)OC2(C)C)C(C)(C)[C@H]1C/C=C1/C(=O)OC[C@@H]1O (stereo partly drawn),GI50,786-0,2.96 µM (inactive)
same,GI50,A498,5.93 µM (inactive)
same,GI50,A549,3.55 µM (inactive)
same,GI50,ACHN,2.65 µM (inactive)
same,GI50,BT-549,1.9 µM (inactive)
same,GI50,CAKI-1,5 µM (inactive)
same,GI50,CCRF-CEM,1.06 µM (active)
same,GI50,COLO 205,5.43 µM (inactive)
same,GI50,DU-145,4.83 µM (inactive)
same,GI50,EKVX,2.96 µM (inactive)
same,GI50,HCC 2998,4.16 µM (inactive)
same,GI50,HCT-116,0.71 µM (active)
same,GI50,HCT-15,1.22 µM
same,GI50,HL-60,0.685 µM (active)
same,GI50,HOP-62,6.1 µM (inactive)
same,GI50,HOP-92,2.02 µM (inactive)
same,GI50,HT-29,1.63 µM (inactive)
same,GI50,Hs-578T,4.2 µM (inactive)
same,GI50,IGROV-1,2.91 µM (inactive)
same,GI50,K562,0.141 µM (active)
same,GI50,KM12,2.34 µM (inactive)
same,GI50,LOX IMVI,0.24 µM (active)
same,GI50,M14,2.48 µM (inactive)
same,GI50,MCF7,1.11 µM (active)
same,GI50,MDA-MB-231,1.69 µM (inactive)
same,GI50,MDA-MB-435,1.86 µM (inactive)
same,GI50,MDA-N,1.49 µM (inactive)
same,GI50,MOLT-4,1.59 µM (inactive)
same,GI50,Malme-3M,2.39 µM (inactive)
same,GI50,NCI-H226,2.29 µM (inactive)
same,GI50,NCI-H23,0.445 µM (active)
same,GI50,NCI-H460,3.04 µM (inactive)
same,GI50,NCI-H522,1.29 µM (inactive)
same,GI50,NCI/ADR-RES,0.906 µM (active)
same,GI50,OVCAR-3,2.57 µM (inactive)
same,GI50,OVCAR-4,0.263 µM (active)
same,GI50,OVCAR-5,2.5 µM (inactive)
same,GI50,OVCAR-8,1.22 µM (inactive)
same,GI50,PC-3,2.17 µM (inactive)
same,GI50,RPMI-8226,1.62 µM (inactive)
same,GI50,RXF 393,2.19 µM (inactive)
same,GI50,SF-268,3.01 µM (inactive)
same,GI50,SF-295,0.348 µM (active)
same,GI50,SF-539,3.17 µM (inactive)
same,GI50,SK-MEL-28,1.59 µM (inactive)
same,GI50,SK-MEL-2,0.524 µM (active)
same,GI50,SK-MEL-5,0.0986 µM (active)
same,GI50,SK-OV-3,4.85 µM (inactive)
same,GI50,SN12C,2.36 µM (inactive)
same,GI50,SNB-19,2.89 µM (inactive)
same,GI50,SNB-75,7.29 µM (inactive)
same,GI50,SR,1.54 µM (inactive)
same,GI50,SW-620,3.33 µM (inactive)
same,GI50,T47D,0.413 µM (active)
same,GI50,TK-10,6.12 µM (inactive)
same,GI50,U-251,2 µM (inactive)
same,GI50,UACC-257,0.363 µM (active)
same,GI50,UACC-62,1.34 µM (inactive)
same,GI50,UO-31,4.91 µM (inactive)
